Reference: US8183001B2 (priority 2006, dated 2012)

Legend:
Assay type in all cases: cell-based, C. elegans
[1] = biological target: YZ chimera (Caenorhabditis elegans, UniProt G5ECD3, A281S/E280D/I265S/I267V/I270L/L277I/N259Q/N305R/S282A/T269V/V261F/V273I); settings: at EC50 GABA
Experimental: (§1) Electrophysiology: Plasmids containing wild-type and mutagenized GABAA receptor subunits were linearized and transcribed in vitro using T3 RNA polymerase (mMessage mMachine T3 kit, Ambion, Austin Tex.). UNC-49B mRNA was injected into Xenopus laevis oocytes at 0.5 μg/μl either alone, or in a mixture with 0.5 μg/μl UNC-49C. […] The injection volume ranged between 27.6 nl to 50.6 nl. […] Cells were voltage clamped at −60 mV. All recordings were performed at room temperature.

[2] = biological target: X chimera (Caenorhabditis elegans, UniProt G5ECD3, I262F/M258L/N259Q/N305R/S264A/T257F/V261F); settings: at EC50 GABA
Experimental: as §1

[3] = biological target: XZ chimera (Caenorhabditis elegans, UniProt G5ECD3, A281S/E280D/I262F/L277I/M258L/N259Q/N305R/S264A/S282A/T257F/V261F); settings: at EC50 GABA
Experimental: as §1

[4] = biological target: linker chimera (Caenorhabditis elegans, UniProt G5ECD3, N305R, form not given); settings: at EC50 GABA
Experimental: as §1

[5] = biological target: double chimera (M1 + linker) (Caenorhabditis elegans, UniProt G5ECD3+G5EE10); settings: at EC50 GABA
Experimental: as §1

[6] = biological target: XY chimera (Caenorhabditis elegans, UniProt G5ECD3, I262F/I265S/I267V/I270L/M258L/N259Q/N305R/S264A/T257F/T269V/V261F/V273I); settings: XY chimera; at EC50 GABA
Experimental: as §1

[7] = biological target: UNC-49B-PS7 (Caenorhabditis elegans, UniProt G5ECD3, I262F/I265S/M258L/N259Q/N305R/S264A/T257F); settings: UNC-49B-PS7; at EC50 GABA
Experimental: as §1

[8] = test system: XY chimera; settings: XY chimera versus X chimera
Experimental: as §1

[9] = test system: X(I265S, Q259N); settings: residue 259 reverted to asparagine, versus X(I265S)
Experimental: as §1

[10] = biological target: X(I270L) (Caenorhabditis elegans, UniProt G5ECD3, I262F/I270L/M258L/N259Q/N305R/S264A/T257F/V261F); settings: at EC50 GABA
Experimental: as §1

[11] = biological target: N305R (Caenorhabditis elegans, UniProt G5ECD3, N305R); settings: at EC50 GABA
Experimental: as §1

[12] = biological target: M1 chimera (Caenorhabditis elegans, UniProt G5ECD3+G5EE10); settings: at EC50 GABA
Experimental: as §1

[13] = biological target: X(I267V) (Caenorhabditis elegans, UniProt G5ECD3, I262F/I267V/M258L/N259Q/N305R/S264A/T257F/V261F); settings: at EC50 GABA
Experimental: as §1

[14] = test system: UNC-49B-PS7
Experimental: as §1

[15] = biological target: M1-R (Caenorhabditis elegans, UniProt G5ECD3+G5EE10, N305R, form not given); settings: at EC50 GABA
Experimental: as §1

[16] = biological target: Z chimera (Caenorhabditis elegans, UniProt G5ECD3, A281S/E280D/L277I/N259Q/N305R/S282A/V261F); settings: at EC50 GABA
Experimental: as §1

[17] = biological target: X(I265S, Q259N) (Caenorhabditis elegans, UniProt G5ECD3, I262F/I265S/M258L/N305R/S264A/T257F/V261F); settings: X(I265S, Q259N); at EC50 GABA
Experimental: as §1

[18] = biological target: Y chimera (Caenorhabditis elegans, UniProt G5ECD3, I265S/I267V/I270L/N259Q/N305R/T269V/V261F/V273I); settings: Y chimera; at EC50 GABA
Experimental: as §1

[19] = biological target: X(T269V) (Caenorhabditis elegans, UniProt G5ECD3, I262F/M258L/N259Q/N305R/S264A/T257F/T269V/V261F); settings: at EC50 GABA
Experimental: as §1

[20] = biological target: UNC-49B homomer (Caenorhabditis elegans, UniProt G5ECD3); settings: UNC-49B homomer
Experimental: as §1

[21] = biological target: X(I265S) (Caenorhabditis elegans, UniProt G5ECD3, I262F/I265S/M258L/N259Q/N305R/S264A/T257F/V261F); settings: at EC50 GABA
Experimental: as §1

Chain of UNC-49B homomer (G5ECD3 entry or part of it): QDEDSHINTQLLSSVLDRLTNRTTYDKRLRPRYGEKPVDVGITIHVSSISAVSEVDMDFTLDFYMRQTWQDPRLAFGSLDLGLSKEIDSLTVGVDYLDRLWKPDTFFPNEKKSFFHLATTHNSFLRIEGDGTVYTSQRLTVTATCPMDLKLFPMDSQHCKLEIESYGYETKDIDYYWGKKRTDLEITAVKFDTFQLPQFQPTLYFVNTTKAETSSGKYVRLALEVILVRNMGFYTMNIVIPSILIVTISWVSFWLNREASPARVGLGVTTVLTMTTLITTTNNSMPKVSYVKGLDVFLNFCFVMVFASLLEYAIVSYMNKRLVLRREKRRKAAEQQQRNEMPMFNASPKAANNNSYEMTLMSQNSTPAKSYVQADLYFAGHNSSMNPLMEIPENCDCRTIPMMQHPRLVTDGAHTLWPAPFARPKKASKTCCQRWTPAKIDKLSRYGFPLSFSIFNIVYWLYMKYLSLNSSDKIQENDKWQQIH
Chain of linker chimera (G5ECD3 23-506, stated change not applied): as the sequence (G5ECD3 entry or part of it) above
Chain of X(I265S) (G5ECD3 23-506, stated change not applied): as the sequence (G5ECD3 entry or part of it) above
Chain of X(I270L) (G5ECD3 23-506, stated change not applied): as the sequence (G5ECD3 entry or part of it) above
Chain of Y chimera (G5ECD3 23-506, stated change not applied): as the sequence (G5ECD3 entry or part of it) above
Chain of X(I267V) (G5ECD3 23-506, stated change not applied): as the sequence (G5ECD3 entry or part of it) above
Chain of N305R (G5ECD3 23-506, stated change not applied): as the sequence (G5ECD3 entry or part of it) above
Chain of YZ chimera (G5ECD3 23-506, stated change not applied): as the sequence (G5ECD3 entry or part of it) above
Chain of double chimera (M1 + linker) (G5ECD3 23-506, change not shown): as the sequence (G5ECD3 entry or part of it) above
Chain of double chimera (M1 + linker) (G5EE10 entry or part of it, change not shown): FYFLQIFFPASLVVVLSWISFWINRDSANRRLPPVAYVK
Chain of XY chimera (Caenorhabditis elegans, UniProt G5ECD3, I262F/I265S/I267V/I270L/M258L/N259Q/N305R/S264A/T257F/T269V/V261F/V273I) (G5ECD3 23-506, stated change not applied): as the sequence (G5ECD3 entry or part of it) above
Chain of X(T269V) (G5ECD3 23-506, stated change not applied): as the sequence (G5ECD3 entry or part of it) above
Chain of X chimera (G5ECD3 23-506, stated change not applied): as the sequence (G5ECD3 entry or part of it) above
Chain of Z chimera (G5ECD3 23-506, stated change not applied): as the sequence (G5ECD3 entry or part of it) above
Chain of UNC-49B-PS7 (Caenorhabditis elegans, UniProt G5ECD3, I262F/I265S/M258L/N259Q/N305R/S264A/T257F) (G5ECD3 23-506, stated change not applied): as the sequence (G5ECD3 entry or part of it) above
Chain of X(I265S, Q259N) (Caenorhabditis elegans, UniProt G5ECD3, I262F/I265S/M258L/N305R/S264A/T257F/V261F) (G5ECD3 23-506, stated change not applied): as the sequence (G5ECD3 entry or part of it) above
Chain of XZ chimera (G5ECD3 23-506, stated change not applied): as the sequence (G5ECD3 entry or part of it) above
Chain of M1 chimera (G5ECD3 entry or part of it, change not shown): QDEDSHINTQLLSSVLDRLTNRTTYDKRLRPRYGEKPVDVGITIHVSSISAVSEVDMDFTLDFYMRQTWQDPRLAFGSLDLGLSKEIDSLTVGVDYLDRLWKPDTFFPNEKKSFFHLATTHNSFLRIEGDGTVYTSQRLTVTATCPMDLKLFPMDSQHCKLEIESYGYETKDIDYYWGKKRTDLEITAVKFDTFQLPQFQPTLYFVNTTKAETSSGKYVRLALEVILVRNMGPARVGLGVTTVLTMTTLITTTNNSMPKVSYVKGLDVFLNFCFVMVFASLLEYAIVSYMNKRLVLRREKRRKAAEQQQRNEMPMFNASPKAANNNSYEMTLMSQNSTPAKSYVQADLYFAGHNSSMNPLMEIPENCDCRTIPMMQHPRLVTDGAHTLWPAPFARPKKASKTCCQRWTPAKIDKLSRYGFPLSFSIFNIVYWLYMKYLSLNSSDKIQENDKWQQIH
Chain of M1 chimera (G5EE10 256-283, change not shown): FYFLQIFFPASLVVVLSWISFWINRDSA
Chain of M1-R (G5ECD3 entry or part of it, stated change not applied): as the sequence (G5ECD3 entry or part of it, change not shown) above

pregnenolone sulfate [PS] was tested, and the “PS Slope coefficient” value [1] was 3.5 ± 1.6, the “PS Slope coefficient” value [2] was 1.0 ± 0.03 and the “PS Slope coefficient” value [3] was 1.1 ± .06. The “PS Slope coefficient” value [4] was 1.3 ± 0.2 (n = 5), the “PS Slope coefficient” value [5] was 1.4 ± 0.1 (n = 4) and the “PS Slope coefficient” value [6] was 1.6 ± 0.2. The “PS Slope coefficient” value [7] was 1.0 ± 0.0, the “fold increase in PS sensitivity” value [8] was 3.7 fold and the “fold reduction in PS sensitivity” value [9] was 2.2 fold. For the same substance, the “PS Slope coefficient” value [10] was 1.5 ± 0.1, the “PS Slope coefficient” value [11] was 1.9 ± 0.2 (n = 4) and the “PS Slope coefficient” value [12] was 0.9 ± 0.1 (n = 4). For the same substance, the “PS Slope coefficient” value [13] was 1.1 ± 0.05, the “fold increase in PS sensitivity” value ([14]; UNC-49B-PS7 versus UNC-49B subunit) was 58 fold and the “fold difference in PS sensitivity” value ([14]; UNC-49B-PS7 versus UNC-49B/C heteromer) was 1.4 fold. The “PS Slope coefficient” value [15] was 1.2 ± 0.1 (n = 8), the “PS Slope coefficient” value [16] was 1.05 ± 0.03 and the “PS Slope coefficient” value [17] was 0.9 ± 0.0. The “PS Slope coefficient” value [18] was 10.4 ± 1.3, the “PS Slope coefficient” value [19] was 1.2 ± 0.1 and the “inhibition of GABA-evoked current” value ([20]; 100 μM PS, EC50 GABA) was 40%. For the same substance, the “PS Slope coefficient” value ([20]; at EC50 GABA) was 0.7 and the “PS Slope coefficient” value [21] was 1.1 ± 0.1.
